In PMC9968088, “Identification and Characterization of Three New Antimicrobial Peptides from the Marine Mollusk Nerita versicolor (Gmelin, 1791)” (International Journal of Molecular Sciences, 2023):
Ends that are not written are not given here.

Legend:
Settings in all cases: 24 h
Pseudomonas aeruginosa = format: cell-based
Description: The OD 600 nm of an overnight culture of Pseudomonas aeruginosa was determined and adjusted to 0.1 in Mueller–Hinton broth and, afterwards, diluted 1:4. […] After a 24 h incubation at 37 °C and a 5% CO2 atmosphere, OD 600 nm was determined using a Tecan microplate reader M infinite 200. All tests were performed in triplicate.

C. albicans = format: cell-based, Candida albicans
Description: (§1) The antifungal activity was determined according to the “Clinical and Laboratory Standards Institute” guidelines M27-A3 broth microdilution assay with modifications (turbidimetric detection) [29, 31]. Based on the cell density measurements, the minimal inhibitory concentration (MIC) was derived from a Lambert–Pearson plot [32].

C. parapsilosis = format: cell-based, Candida parapsilosis
Description: as §1

C. auris = format: cell-based, Candida auris
Description: as §1

C. albicans biofilm = format: cell-based, Candida albicans
Description: (§2) Biofilms were basically formed and analyzed as described previously [31, 32, 33]. In brief, 2.5 × 10^3 yeast cells were seeded in 200 µL RPMI-1640 medium supplemented with L-glutamine in flat-bottomed, 96-well polystyrene microtiter plates (Sarstedt AG & Co. KG, Nümbrecht, Germany) and incubated at 37 °C without agitation for 24 h. The effect of the peptides on the biofilm formation was tested at different concentrations. […] Planktonic cells were removed with the supernatant, and the mature biofilms were washed twice with 200 µL water. Subsequently, the biofilms were stained with 200 µL of a 0.1% (w/v) crystal violet solution for 15 min. The supernatant was removed, and the biofilms were washed twice with 200 µL water to eliminate excess crystal violet. The stained biofilms were air dried for 24 h at 25 °C and finally destained using 200 µL of 30% acetic acid (15 min, 25 °C). The supernatant was transferred to a fresh 96-well plate, and the absorbance at 560 nm was measured using a Tecan infinite M200 microplate reader to quantify the biofilm biomass. The curve was fitted with a nonlinear regression with the dose-response nonlinear Hill equation.

C. parapsilosis biofilm = format: cell-based, Candida parapsilosis
Description: as §2

C. auris biofilm = format: cell-based, Candida auris
Description: as §2

KKKPTKK [Nv-p3]
MIC (Pseudomonas aeruginosa): >100 µg/mL | Antifungal Activity MIC (C. albicans): ˃100 µg/mL | Antifungal Activity MIC (C. parapsilosis): ˃100 µg/mL | Antifungal Activity MIC (C. auris): ˃100 µg/mL | Antibiofilm Activity IC50 (C. albicans biofilm): 57.5 µg/mL | Antibiofilm Activity IC50 (C. parapsilosis biofilm): 84.4 µg/mL | Antibiofilm Activity IC50 (C. auris biofilm): 57.5 µg/mL
